# Measurements reported in patent publication US20250298027A1, “METHOD OF EVALUATING SMALL MOLECULE DISTRIBUTION USING TELLUROPHENE ANALOGUES” (THE GOVERNING COUNCIL OF THE UNIVERSITY OF TORONTO, priority 2022, published 2025).
# Where “and” joins values, the source holds several entries; their conditions need not be identical. Identical values can stand only once. Like-named read-outs stand apart in the source and are kept apart here.
# How the values were obtained:
# Jurkat cells [1] = assay: 7b and 8b incorporation into living Jurkat cells with or without Carfilzomib (CyTOF); assay type: cell-based; conditions: 1 hour
# Method: Co-dosing of cells with Te-Car 7b and Car lead to an approximately 50% reduction in Te labelling confirming the on-target labelling of modified compound (FIG. 10). This evidence supports that TeCar can be used to monitor Carfilzomib's target engagement in a more complex and disease-relevant samples.
# Jurkat cells were seeded in […] plastic culture flasks at a concentration of approximately 5 million cells/mL for 24 hours prior to dosing. The cells were dosed with either Carfilzomib, 7b, or 8b at a final concentration of 500 nM, or a combination of Carfilzomib/7b (500 nM each), Carfilzomib/8b (500 nM each), or a DMSO control (final percentage of 0.5%) in complete media for 1 hour.
# The media was then immediately removed, and the cells resuspended in 3 mL of cold phosphate-buffered saline (PBS), before being aliquoted into three 1 mL aliquots per each dosing regime. The samples were then prepped for CYTOF® analysis.
# Briefly, each sample aliquot was washed three times with cold PBS (1 mL×3). The cells were then fixed, permeabilized, and stained with Cell-ID™ Intercalator-Ir stain in PBS (1 mL) for 1 hour at rt. […]
# CYTOF® analysis was conducted the following day. […] The average ^128Te signal in the population of cells (events positive for 191 Ir and 193Ir signal) for each sample was determined.
# Jurkat cells [2] = assay: Cell viability in Jurkat cells (WST-1); assay type: cell-based
# Method: In Jurkat cells treated with increasing concentrations of TeCar 7b, a concentration-dependent reduction in overall cell viability was observed (Table 1). When compared to Carfilzomib, similar concentrations of 7b (Te-Car) were needed to produce a 50% reduction in Jurkat cell viability.
# Jurkat cells (CRL-2899) were purchased from ATCC were maintained in Rosewell Park Memorial Institute (RPMI) media supplemented with 10% fetal bovine serum (FBS) and 1% penicillin/streptomycin in a humidified 37° C. incubator with 5% CO2 (g), and cultured as per ATCC guidelines in culture flasks purchased from Starstedt.
# Jurkat cells, at a concentration of approximately 12 500 cells/mL, were seeded in a 96 well plate in complete media in dosed with increasing concentrations (0-200 nM) of Carfilzomib or 7b (100 ul final volume) and left to incubate for 44 hours. Each concentration was repeated in triplicate. 10 uL of WST-1 was then added to each well, and the plate was allowed to incubate for 2 hours before the absorbance at 440 nm was measured. Absorbance signal in 100 uL complete media+10 uL WST-1 was first subtracted from each well before plotting the absorbance signal vs log (concentration). The concentration needed to see a 50% reduction in absorbance signal was then determined using GraphPad Prism software.
# [3] = mice, depending on route of administration and dosing regimen; cited from earlier work
# PANC-1 cells = assay: alamarBlue viability assay in PANC-1 cells; assay type: cell-based, Human; conditions: maximum dose of 25 μM, 72 hours exposure
# Method: Similarly, PANC1 cells were characterized for later in vivo experiments. Using an alamarBlue viability assay and a proliferative assay, PANC-1 cells were incubated with 1 or teniposide.
# AlamarBlue assay: PANC-1 cells were seeded into black, clear-bottom 96-well assay plates (Corning; CLS3603) and incubated for 24 hours. The medium was replaced with […] of teniposide or compound 1. After 72 hours exposure to drug, alamarBlue (Thermo Fisher Scientific; DAL1100) cell viability reagent was added and incubated for 4 hours at 37° C. Fluorescence intensity was measured using an excitation wavelength of 560 nm and an emission of 590 nm. Cell viability was calculated by normalizing to an untreated control.
# pH2AX^Ser139 [4] = assay: pH2AX Western blotting in PANC-1 cells; assay type: cell-based, Human; conditions: 1 μM, 24 and 48 hours
# Method: Next, the ability of 1 to induce DSBs—the dominant type of DNA damage resulting from Top2 inhibition was investigated. In response to DSBs, a cascade of DNA repair mechanisms are triggered, including-phosphorylation of the histone variant H2AX at Ser139. Thus, the level of pH2AX^Ser139 serves as a reliable marker for Top2-linked DSBs. Western blotting was used to measure pH2AX^Ser139 in PANC-1 cells treated with 1 μM of either 1 or teniposide for 24 and 48 hours.
# pH2AX Blotting: PANC-1 cells (0.5×10^6) cells were seeded in 60 mm plastic petri dishes (Corning Inc. NY) and incubated for 18 h. The spent medium is removed and replaced with fresh medium containing drug ([…]) and incubated for either 24 or 48h. Control cells were treated with DMSO only. The cells were then lysed with RIPA buffer (25 mM Tris·HCl PH 7.6, 150 mM NaCl, 1% NP-40, 1% sodium deoxycholate, 0.1% SDS) (ThermoFisher Scientific) containing Halt Protease Inhibitor Cocktail (Cat. No. 78410) and Halt Phosphatase Inhibitor Cocktail (Cat. No. 78420) as per manufacturer's protocol. […] Antibodies (Abcam, Cambridge, MA) targeting the following proteins were used H2AX (S139) (ab11174, polyclonal) and β-tubulin (ab6046, polyclonal).
# pH2AX^Ser139 [5] = assay: pH2AX immunohistochemistry of PANC-1 xenograft tumour sections; assay type: in vivo, mice; conditions: 20 mg/kg IP, 2 hours
# Method: PANC-1 xenograft-bearing mice were injected with either teniposide or the Te-teniposide analogue 1 IP. A dose of 20 mg/kg was selected based on literature reports detailing teniposide drug delivery strategies. After 2 hours, mice were sacrificed and tissues of interest were harvested, formalin fixed, and paraffin embedded. Tissue sections (5 um) were cut and mounted onto microscopy slides. The expression of pH2AX^Ser139 levels were first assessed by immunohistochemistry. Serial sections derived from PANC-1 xenograft tumours were stained with primary antibody and subsequently HRP-conjugated secondary antibody for standard brown staining. DSBs are indicated by large, discrete pH2AX^Ser139 foci. Representative images of immunostained slides show increased pH2AX^Ser139 levels in treated mice relative to saline injected control with clear, punctate staining (FIG. 7).
# Top2 [6] = conditions: fluorescence anisotropy and DNA relaxation gel assays; read-out: IC50 of teniposide in literature; cited from earlier work
# Top2 [7] = biological target: T1, Top2 (Homo sapiens, UniProt P11388); assay: Top2 decatenation assay using kinetoplast DNA; assay type: biochemical; conditions: 5, 10, 25 and 50 μM
# T1 construct: purchased TopoGEN, Inc
# T1 sequence (P11388 whole entry): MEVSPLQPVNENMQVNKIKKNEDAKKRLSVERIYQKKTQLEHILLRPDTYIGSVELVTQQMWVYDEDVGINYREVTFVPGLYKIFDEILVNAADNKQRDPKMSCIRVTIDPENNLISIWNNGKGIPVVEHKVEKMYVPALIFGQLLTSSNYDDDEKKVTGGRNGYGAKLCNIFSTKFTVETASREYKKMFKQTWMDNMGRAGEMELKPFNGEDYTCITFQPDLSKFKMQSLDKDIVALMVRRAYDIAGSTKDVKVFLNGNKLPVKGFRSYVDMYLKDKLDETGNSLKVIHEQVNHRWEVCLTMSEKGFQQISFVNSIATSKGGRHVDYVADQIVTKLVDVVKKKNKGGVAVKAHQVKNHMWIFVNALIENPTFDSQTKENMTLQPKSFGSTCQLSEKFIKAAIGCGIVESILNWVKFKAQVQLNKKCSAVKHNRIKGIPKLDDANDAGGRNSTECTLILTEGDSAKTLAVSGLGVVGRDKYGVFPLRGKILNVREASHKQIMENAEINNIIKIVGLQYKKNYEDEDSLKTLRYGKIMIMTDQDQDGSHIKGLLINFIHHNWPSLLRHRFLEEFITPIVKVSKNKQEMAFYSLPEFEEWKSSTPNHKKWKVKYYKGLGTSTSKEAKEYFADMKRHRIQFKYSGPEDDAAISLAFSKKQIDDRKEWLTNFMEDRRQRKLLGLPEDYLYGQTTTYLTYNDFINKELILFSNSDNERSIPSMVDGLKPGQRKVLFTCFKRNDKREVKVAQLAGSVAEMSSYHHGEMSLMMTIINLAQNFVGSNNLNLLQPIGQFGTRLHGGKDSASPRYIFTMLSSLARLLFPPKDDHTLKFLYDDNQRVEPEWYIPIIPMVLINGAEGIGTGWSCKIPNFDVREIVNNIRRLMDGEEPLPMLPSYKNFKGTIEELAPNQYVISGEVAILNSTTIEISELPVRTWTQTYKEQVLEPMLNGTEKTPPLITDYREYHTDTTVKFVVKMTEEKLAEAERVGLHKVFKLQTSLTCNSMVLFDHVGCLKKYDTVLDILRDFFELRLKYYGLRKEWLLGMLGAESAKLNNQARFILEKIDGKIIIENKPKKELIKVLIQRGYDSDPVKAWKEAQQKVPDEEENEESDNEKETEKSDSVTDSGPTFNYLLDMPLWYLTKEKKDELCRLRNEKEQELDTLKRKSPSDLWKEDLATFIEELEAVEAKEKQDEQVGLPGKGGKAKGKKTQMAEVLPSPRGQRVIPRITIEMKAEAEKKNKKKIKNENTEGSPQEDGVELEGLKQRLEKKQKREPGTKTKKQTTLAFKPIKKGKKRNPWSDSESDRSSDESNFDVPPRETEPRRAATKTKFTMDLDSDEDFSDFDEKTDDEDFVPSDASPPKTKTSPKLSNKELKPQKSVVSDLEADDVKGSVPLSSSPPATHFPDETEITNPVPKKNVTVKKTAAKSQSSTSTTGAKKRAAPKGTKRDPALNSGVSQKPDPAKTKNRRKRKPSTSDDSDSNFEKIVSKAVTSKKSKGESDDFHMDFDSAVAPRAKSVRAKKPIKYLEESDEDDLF
# Method: The relative Top2 inhibitory activity of 1 in comparison to teniposide was evaluated in decatenation assays using kinetoplast DNA (kDNA). Decatenation of the DNA, catalyzed by Top2, can be readily resolved using agarose gel electrophoresis.
# Top2 decatenation assay: The assay was performed according to manufacturer's protocol (TopoGEN, Inc.). The total reaction volume was 20 μL of assay buffer (120 mM KCl, 50 mM Tris-HCl, 10 mM MgCl2, 0.5 mM DTT, 0.5 mM ATP, and 30 μg/mL BSA) and 120 ng of kinetoplast DNA (kDNA) substrate. One unit of TopoII enzyme in was added to reaction microfuge tubes in the presence or absence of inhibitor. The reaction was incubated for 30 min at 37° C. The reaction was stopped by addition of 5 μL of stop buffer (5% sarkosyl, 0.025% bromophenolblue, and 50% glycerol). The samples were then analyzed using electrophoresis using a 1% agarose gel in Tris-borate-EDTA buffer with 0.5 pg/mL ethidium bromide stain. Gels were imaged using Syngene G: Box Gel Imager (Chemi-XT4 GENESys software with preset for ethidium bromide stained agarose gels). Band intensities were analyzed using ImageJ software.
# HL-60 cells = assay: WST-1 viability assay in HL-60 cells; assay type: cell-based; conditions: Homo sapiens, HL-60; 24 hours, maximum concentration of 50 μM; read-out: inhibition of proliferation of HL-60 cells
# Method: The toxicity of 1 was compared to teniposide in HL-60 cells after incubation for 24 hours using a WST-1 viability assay.
# WST-1 metabolic cytotoxicity assay: HL-60 cells (ATCC® CCL-240TM) were maintained in DMEM media with 2 mM L-glutamine (Gibco) supplemented with 20% calf serum and 100× dilution of penicillin-streptomycin solution (Gibco). Cells were maintained at 37° C. in a humidified atmosphere of 5% CO2 in air. HL-60 cells (100 pL) were seeded into a 96 well clear at a density of 5×10^5 cells/mL. Cells were treated with either DMSO or appropriate inhibitor from DMSO stocks. […] Cells were incubated for 24 h at 37° C. under a 5% CO2 atmosphere. WST-1 reagent (10 pL; Roche Diagnostics, 05015944001) was added to each well and gently mixed by pipetting. Cells were incubated for 1 h at 37° C. under 5% CO2 atmosphere. UV-vis absorbance measurements of each well at 450 nm was recorded using a TECAN Safire 2 plate reader. Data was background corrected against wells that contained cell growth media without cells and WST-1. Experiment was performed in triplicate.
smiles,measurement,setting,value
"CC(C)C[C@H](NC(=O)[C@H](CCc1ccccc1)NC(=O)CN1CCOCC1)C(=O)N[C@@H](Cc1ccc[te]1)C(=O)N[C@@H](CC(C)C)C(=O)[C@@]1(C)CO1 (single isomer, unassigned) [7b]",reduction in Te labelling on co-dosing with Carfilzomib,"Jurkat cells [1]; 7b and Carfilzomib 500 nM each, ^128Te",approximately 50%
same,accumulation of tellurium within the cells,Jurkat cells [1]; mass cytometry,activity dependent accumulation
same,IC50,"Jurkat cells [2]; Homo sapiens, Jurkat, 44 h, read-out: IC50, viability of Jurkat cells, Average +/− SD, 44 hours, WST-1, average of 3 biological replicates",9.71 nM
same,IC50,"Jurkat cells [2]; Homo sapiens, Jurkat, 44 h, read-out: IC50, viability of Jurkat cells, single biological replicate, 44 hours, WST-1, Biol. Rep 1-3",9.48 nM
same,IC50,"Jurkat cells [2]; read-out: IC50, viability of Jurkat cells, single biological replicate, 44 hours, WST-1, Biol. Rep 1-3",9.87 nM and 9.78 nM
"CC(C)C[C@H](NC(=O)[C@H](CCc1ccccc1)NC(=O)CN1CCOCC1)C(=O)N[C@@H](Cc1ccccc1)C(=O)N[C@@H](CC(C)C)C(=O)[C@@]1(C)CO1 [Carfilzomib, reference compound]",IC50,"Jurkat cells [2]; 44 hours, WST-1, Biol. Rep 1-3, read-out: IC50, viability of Jurkat cells, single biological replicate",9.99 nM and 9.41 nM
same,IC50,"Jurkat cells [2]; Homo sapiens, Jurkat, 44 h, WST-1, Biol. Rep 1-3, read-out: IC50, viability of Jurkat cells, single biological replicate",9.13 nM
same,IC50,"Jurkat cells [2]; Homo sapiens, Jurkat, 44 h, WST-1, average of 3 biological replicates, read-out: IC50, viability of Jurkat cells, Average +/− SD",9.51 nM
"COc1cc([C@@H]2c3cc4c(cc3[C@@H](O[C@@H]3O[C@@H]5CO[C@@H](c6cccs6)O[C@H]5[C@H](O)[C@H]3O)[C@H]3COC(=O)[C@H]23)OCO4)cc(OC)c1O [teniposide, reference compound]",half-life,[3],1 to 5 h
same,loss of cell viability in PANC-1 cells,PANC-1 cells,almost complete loss of cell viability
same,levels of pH2AX^Ser139 relative to DMSO-treated control,pH2AX^Ser139 [4],Increased levels
same,pH2AX^Ser139 levels in tumour sections relative to saline injected control,pH2AX^Ser139 [5],increased
same,IC50,Top2 [6],1300 to 9800 nM
same,inhibition of the decatenation reaction,Top2 [7],dose-dependent inhibition
same,inhibition at 50 µM,HL-60 cells,≤ 60%
